{
  "source": "patent EP0269841A1",
  "about": "“1-Hydroxyalkyl xanthines, processes for their preparation and medicaments containing them” (SOCIETE DES PRODUITS NESTLE S.A., priority 1986, dated 1988)",
  "data": [
    {"system": "oreillette gauche du cobaye isolée et stimulée électriquement", "test": "In vitro inotropic (cardiotonic) activity: contraction force of isolated, electrically stimulated guinea pig left atrium", "type": "cell-based", "settings": "read-out: Cardiotonique (concentration minimale efficace en ug/ml produisant une réponse significative)", "from_the_text": "(§1) Les composés (I) selon l'invention ont été trouvés peu toxiques et n'ont pas ou peu d'effet sur le système nerveux central. Par contre, ils se sont montrés actifs dans les test in vitro d'activité inotropique (cardiotonique). Le Tableau (IV) ci-dessous donne les résultats de ces essais.\n(§2) Theophylline 15 Amrinone ^2) 100 Milrinone ^2) 0,5 IBMX^3) 0,5 • 1) Mesure de la force de contraction de l'oreillette gauche du cobaye isolée et stimulée électriquement, selon Erjavek, F. and Adamic, S., Arch. Int. Pharmacodyn. 155: 251, 1965. Une réponse est considérée comme significative lorsque la force de contraction de base est augmentée de plus de 40 %. • 2) Médicament cardiotonique selon l'état de la technique • 3) 1-méthyl-3-isobutylxanthine", "units": {"minimal effective concentration": "µg/mL"}, "values": [
      {"smiles": "Cc1[nH]c(=O)c(C#N)cc1-c1ccncc1", "note": "[Milrinone, reference compound]", "minimal effective concentration": 0.5}
    ]},
    {"system": "oreillette gauche du cobaye isolée et stimulée électriquement", "test": "In vitro inotropic (cardiotonic) activity: contraction force of isolated, electrically stimulated guinea pig left atrium", "type": "cell-based", "settings": "significant response = basal contraction force increased by more than 40 %; isolated left atrium of guinea pig, electrically stimulated", "from_the_text": "as §1, §2", "values": [
      {"smiles": "CCCCn1c(=O)n(CC(C)O)c(=O)c2[nH]cnc21", "note": "(stereo not shown) [compound 6]", "Cardiotonique (concentration minimale efficace en ug/ml produisant une réponse significative)": "4,2 ug/ml"},
      {"smiles": "CCCn1c(=O)n(CCCCCO)c(=O)c2[nH]c(C)nc21", "note": "[compound 27]", "Cardiotonique (concentration minimale efficace en ug/ml produisant une réponse significative)": "0,3 ug/ml"}
    ]},
    {"system": "oreillette gauche du cobaye isolée et stimulée électriquement", "test": "In vitro inotropic (cardiotonic) activity: contraction force of isolated, electrically stimulated guinea pig left atrium", "type": "cell-based", "settings": "significant response = basal contraction force increased by more than 40 %; isolated left atrium of guinea pig, electrically stimulated; listed as 1", "from_the_text": "as §1, §2", "units": {"Cardiotonique (concentration minimale efficace en ug/ml produisant une réponse significative)": "µg/mL"}, "values": [
      {"smiles": "CCCn1c(=O)n(CCCCCO)c(=O)c2[nH]c(C)nc21", "note": "[Xanthine No. 27, 1-(5-Hydroxypentyl)-3-propyl-8-methylxanthine]", "Cardiotonique (concentration minimale efficace en ug/ml produisant une réponse significative)": 1}
    ]},
    {"system": "oreillette gauche du cobaye isolée et stimulée électriquement", "test": "In vitro inotropic (cardiotonic) activity: contraction force of isolated, electrically stimulated guinea pig left atrium", "type": "cell-based", "settings": "significant response = basal contraction force increased by more than 40 %; isolated left atrium of guinea pig, electrically stimulated; listed as 2", "from_the_text": "as §1, §2", "values": [
      {"smiles": "CCCCn1c(=O)n(CCCCO)c(=O)c2[nH]cnc21", "note": "[Xanthine No. 21, 1-(4-Hydroxybutyl)-3-butylxanthine]", "Cardiotonique (concentration minimale efficace en ug/ml produisant une réponse significative)": "2,5 ug/ml"}
    ]},
    {"system": "oreillette gauche du cobaye isolée et stimulée électriquement", "test": "In vitro inotropic (cardiotonic) activity: contraction force of isolated, electrically stimulated guinea pig left atrium", "type": "cell-based", "settings": "significant response = basal contraction force increased by more than 40 %; isolated left atrium of guinea pig, electrically stimulated; listed as 3", "from_the_text": "as §1, §2", "units": {"Cardiotonique (concentration minimale efficace en ug/ml produisant une réponse significative)": "µg/mL"}, "values": [
      {"smiles": "CC(C)Cn1c(=O)n(CCC(C)O)c(=O)c2[nH]cnc21", "note": "(stereo not shown) [Xanthine No. 17, 1-(3-Hydroxybutyl)-3-isobutylxanthine]", "Cardiotonique (concentration minimale efficace en ug/ml produisant une réponse significative)": 2}
    ]},
    {"system": "oreillette gauche du cobaye isolée et stimulée électriquement", "test": "In vitro inotropic (cardiotonic) activity: contraction force of isolated, electrically stimulated guinea pig left atrium", "type": "cell-based", "settings": "significant response = basal contraction force increased by more than 40 %; isolated left atrium of guinea pig, electrically stimulated; read-out: Cardiotonique (concentration minimale efficace en ug/ml produisant une réponse significative)", "from_the_text": "as §1, §2", "units": {"minimal effective concentration": "µg/mL"}, "values": [
      {"smiles": "CCCn1c(=O)n(CCCCO)c(=O)c2[nH]c(C)nc21", "note": "[compound 20]", "minimal effective concentration": 0.7},
      {"smiles": "Cc1nc2c([nH]1)c(=O)n(CCCO)c(=O)n2CC(C)C", "note": "[compound 12]", "minimal effective concentration": 0.5},
      {"smiles": "Cn1c(=O)n(CCCCCO)c(=O)c2[nH]cnc21", "note": "[compound 25]", "minimal effective concentration": 6.7},
      {"smiles": "CC(C)Cn1c(=O)n(CCC(C)O)c(=O)c2[nH]cnc21", "note": "(stereo not shown) [compound 17]", "minimal effective concentration": 1.3},
      {"smiles": "CC(C)Cn1c(=O)n(C)c(=O)c2[nH]cnc21", "note": "[IBMX, 1-méthyl-3-isobutylxanthine, reference compound]", "minimal effective concentration": 0.5},
      {"smiles": "CCn1c(=O)n(CCCCO)c(=O)c2[nH]cnc21", "note": "[compound 18]", "minimal effective concentration": 3.3},
      {"smiles": "CCCn1c(=O)n(CCCC(C)O)c(=O)c2[nH]cnc21", "note": "(stereo not shown) [compound 24]", "minimal effective concentration": 0.7},
      {"smiles": "CCn1c(=O)n(CCC(C)O)c(=O)c2[nH]cnc21", "note": "(stereo not shown) [compound 14]", "minimal effective concentration": 0.8},
      {"smiles": "CCCn1c(=O)n(CCCCO)c(=O)c2[nH]cnc21", "note": "[compound 19]", "minimal effective concentration": 0.4},
      {"smiles": "Cn1c(=O)c2[nH]cnc2n(C)c1=O", "note": "[Theophylline, reference compound]", "minimal effective concentration": 15},
      {"smiles": "CCCCn1c(=O)n(CC(C)O)c(=O)c2[nH]cnc21", "note": "(stereo not shown) [Xanthine No. 6, 1-(2-Hydroxypropyl)-3-butylxanthine]", "minimal effective concentration": 3.3},
      {"smiles": "CCCCn1c(=O)n(CCCCO)c(=O)c2[nH]cnc21", "note": "[compound 21]", "minimal effective concentration": 2},
      {"smiles": "CCCCn1c(=O)n(CCCO)c(=O)c2[nH]cnc21", "note": "[compound 10]", "minimal effective concentration": 0.4},
      {"smiles": "CCCn1c(=O)n(CCCO)c(=O)c2[nH]c(CC)nc21", "note": "[compound 9]", "minimal effective concentration": 2},
      {"smiles": "CC(O)CCCn1c(=O)c2[nH]cnc2n(C)c1=O", "note": "(stereo not shown) [compound 23]", "minimal effective concentration": 33.3},
      {"smiles": "CCCn1c(=O)n(CCCCCO)c(=O)c2[nH]cnc21", "note": "[compound 26]", "minimal effective concentration": 0.2},
      {"smiles": "CC(C)Cn1c(=O)n(CCCO)c(=O)c2[nH]cnc21", "note": "[compound 11]", "minimal effective concentration": 0.7},
      {"smiles": "CCn1c(=O)n(CCC(C)O)c(=O)c2[nH]c(C)nc21", "note": "(stereo not shown) [compound 15]", "minimal effective concentration": 0.6},
      {"smiles": "CCCn1c(=O)n(CCCO)c(=O)c2[nH]cnc21", "note": "[compound 7]", "minimal effective concentration": 1.3},
      {"smiles": "CCCn1c(=O)n(CC(C)O)c(=O)c2[nH]c(C)nc21", "note": "(stereo not shown) [compound 5]", "minimal effective concentration": 0.6},
      {"smiles": "CCCn1c(=O)n(CCC(C)O)c(=O)c2[nH]cnc21", "note": "(stereo not shown) [compound 16]", "minimal effective concentration": 0.1},
      {"smiles": "CC(O)CCn1c(=O)c2[nH]cnc2n(C)c1=O", "note": "(stereo not shown) [compound 13]", "minimal effective concentration": 50},
      {"smiles": "CCCn1c(=O)n(CCCO)c(=O)c2[nH]c(C)nc21", "note": "[compound 8]", "minimal effective concentration": 4.2},
      {"smiles": "Cc1nc2c([nH]1)c(=O)n(CCCCO)c(=O)n2CC(C)C", "note": "[compound 22]", "minimal effective concentration": 25},
      {"smiles": "Nc1cc(-c2ccncc2)c[nH]c1=O", "note": "[Amrinone, reference compound]", "minimal effective concentration": 100}
    ]}
  ]
}
